Results taken from article PMC10729960, “Developing novel antimicrobials by combining cancer chemotherapeutics with bacterial DNA repair inhibitors” (PLOS Pathogens, 2023).

What was measured:
Assay type in all cases: biochemical
[1] = target: T1, UvrABC (UvrA, UvrB and UvrC) (Escherichia coli, UniProt P0A698+P0A8F8+P0A8G0); assay: fluorescence-based DNA incision assay (Cy5 / black hole quencher); conditions: 37 °C, 200 nM UvrA, 400 nM UvrB, 200 nM UvrC, 1 mM ATP, 100 nM fluorescein-adducted DNA, pH 7.5, compound concentration not given for this assay
T1 construct: purified proteins; UvrB and UvrC with C-terminal linker, AviTag, TEV site and 6xHis
T1 sequence (P0A8G0 whole entry, one chain of several): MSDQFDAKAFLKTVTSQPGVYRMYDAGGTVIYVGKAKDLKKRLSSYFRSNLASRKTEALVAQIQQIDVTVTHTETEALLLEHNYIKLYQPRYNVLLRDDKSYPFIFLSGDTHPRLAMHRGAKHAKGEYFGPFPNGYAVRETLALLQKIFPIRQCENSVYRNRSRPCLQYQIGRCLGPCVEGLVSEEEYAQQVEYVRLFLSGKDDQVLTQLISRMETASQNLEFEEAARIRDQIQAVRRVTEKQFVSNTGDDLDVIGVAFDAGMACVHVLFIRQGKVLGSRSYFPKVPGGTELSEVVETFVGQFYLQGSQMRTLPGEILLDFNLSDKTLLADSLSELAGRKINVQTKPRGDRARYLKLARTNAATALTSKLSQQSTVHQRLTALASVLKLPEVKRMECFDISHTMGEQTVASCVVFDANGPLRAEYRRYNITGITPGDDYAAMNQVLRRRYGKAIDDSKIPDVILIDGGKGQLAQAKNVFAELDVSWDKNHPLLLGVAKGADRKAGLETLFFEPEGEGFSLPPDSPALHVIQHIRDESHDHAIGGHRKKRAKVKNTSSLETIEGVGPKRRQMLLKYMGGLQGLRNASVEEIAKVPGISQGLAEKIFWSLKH
T1 sequence (P0A8F8 2-673, one chain of several): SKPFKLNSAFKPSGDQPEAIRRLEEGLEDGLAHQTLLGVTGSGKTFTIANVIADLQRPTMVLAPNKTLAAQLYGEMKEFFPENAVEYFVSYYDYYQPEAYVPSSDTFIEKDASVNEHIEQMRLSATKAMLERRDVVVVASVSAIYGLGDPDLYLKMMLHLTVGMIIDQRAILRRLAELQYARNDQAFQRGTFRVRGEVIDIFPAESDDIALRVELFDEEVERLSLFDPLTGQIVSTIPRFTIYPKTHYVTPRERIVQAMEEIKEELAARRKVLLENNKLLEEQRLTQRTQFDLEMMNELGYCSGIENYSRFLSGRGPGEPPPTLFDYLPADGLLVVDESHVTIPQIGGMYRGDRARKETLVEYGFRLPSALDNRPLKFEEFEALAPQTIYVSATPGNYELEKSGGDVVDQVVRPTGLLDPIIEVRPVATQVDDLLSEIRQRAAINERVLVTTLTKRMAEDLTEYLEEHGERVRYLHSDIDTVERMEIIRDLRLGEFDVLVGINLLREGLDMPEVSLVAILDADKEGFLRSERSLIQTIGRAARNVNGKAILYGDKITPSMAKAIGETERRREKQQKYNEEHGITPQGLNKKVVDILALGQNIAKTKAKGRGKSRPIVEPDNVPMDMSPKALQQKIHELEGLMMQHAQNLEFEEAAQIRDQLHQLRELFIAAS

UvrA [2] = target: T2, UvrA (Escherichia coli, UniProt P0A698); assay: NADH-coupled ATPase assay (pyruvate kinase / lactate dehydrogenase); conditions: without DNA; 50 nM UvrA, 20 μM compound, 1 mM ATP, 10 mM MgCl2, pH 7.5, room temperature; allosteric site only from docking
T2 sequence (P0A698 1-940): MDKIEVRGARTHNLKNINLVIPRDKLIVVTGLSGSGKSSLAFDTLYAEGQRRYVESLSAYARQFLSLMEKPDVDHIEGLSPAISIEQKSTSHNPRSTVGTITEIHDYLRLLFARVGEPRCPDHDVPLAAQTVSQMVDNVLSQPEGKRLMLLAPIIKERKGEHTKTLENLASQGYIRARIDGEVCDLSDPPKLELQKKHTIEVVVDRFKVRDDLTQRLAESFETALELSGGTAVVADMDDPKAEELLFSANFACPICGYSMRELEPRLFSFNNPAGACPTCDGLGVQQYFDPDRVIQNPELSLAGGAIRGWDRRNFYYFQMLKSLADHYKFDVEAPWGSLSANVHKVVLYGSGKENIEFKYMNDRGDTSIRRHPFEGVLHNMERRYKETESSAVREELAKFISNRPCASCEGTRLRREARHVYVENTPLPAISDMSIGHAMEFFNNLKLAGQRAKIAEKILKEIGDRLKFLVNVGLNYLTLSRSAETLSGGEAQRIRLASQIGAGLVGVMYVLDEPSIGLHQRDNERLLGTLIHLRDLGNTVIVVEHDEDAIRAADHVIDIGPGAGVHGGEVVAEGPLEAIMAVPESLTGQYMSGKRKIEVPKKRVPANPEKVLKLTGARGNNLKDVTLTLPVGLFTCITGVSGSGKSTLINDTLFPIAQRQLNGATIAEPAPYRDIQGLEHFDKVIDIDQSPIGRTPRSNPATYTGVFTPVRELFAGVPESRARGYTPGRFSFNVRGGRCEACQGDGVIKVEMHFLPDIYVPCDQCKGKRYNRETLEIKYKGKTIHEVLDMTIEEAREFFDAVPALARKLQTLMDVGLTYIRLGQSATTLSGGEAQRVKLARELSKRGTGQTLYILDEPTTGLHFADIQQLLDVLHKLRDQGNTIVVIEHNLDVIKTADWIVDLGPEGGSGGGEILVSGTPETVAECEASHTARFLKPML

UvrA [3] = target: T2, UvrA; assay: as above; conditions: with and without DNA; 50 nM UvrA, 20 μM compound, 1 mM ATP, 10 mM MgCl2, pH 7.5, room temperature; DNA intercalator
UvrA [4] = target: T2, UvrA; assay: as above; conditions: 1 mM ATP, 50 nM UvrA, 10 mM MgCl2, pH 7.5, room temperature

Row | Compound | % reduction of ATPase at 20 μM (UvrA [2]) [%] | % ATPase activity at 20 μM (UvrA [3]) | further results
1 | Nc1c2ccccc2nc2ccccc12 [9-aminoacridine] | – | – | max inhibition ([1]; 2.5 h, possibly acts through DNA, target subunit unk): ~ 49%
2 | C/C=C(/C(=C/C)c1ccc(O)cc1)c1ccc(O)cc1 [Dienestrol] | > 70 | – | max inhibition ([1]; 16 h): ~ 25%
3 | O=C1c2c(O)ccc(O)c2C(=O)c2c(NCCNCCO)ccc(NCCNCCO)c21 [Mitoxantrone] | – | both Mitoxantrone and Pirarubicin directly inhibit UvrA’s ATPase activity | max inhibition ([1]; 16 h, DNA intercalator): ~ 82%
4 | COc1cccc2c1C(=O)c1c(O)c3c(c(O)c1C2=O)C[C@@](O)(C(=O)CO)C[C@@H]3O[C@H]1C[C@H](N)[C@H](O[C@@H]2CCCCO2)[C@H](C)O1 [Pirarubicin] | – | Pirarubicin, Mitoxantrone, Dienestrol and L-thyroxine all inhibited the ATPase | –
5 | N[C@@H](Cc1cc(I)c(Oc2cc(I)c(O)c(I)c2)c(I)c1)C(=O)O [L-thyroxine] | > 70 | – | –
6 | Nc1ncnc2c1ncn2[C@@H]1O[C@H](COP(=O)(O)OP(=O)(O)OP(=O)(O)O)[C@@H](O)[C@H]1O [ATP] | – | – | NADH-coupled ATPase assay (pyruvate kinase / lactate dehydrogenase) (UvrA [4]): We directly measured the rate of ATP turnover for purified UvrA
